Measured values: patent US20050148521A1, “Anti-cancer combination and use thereof” (Yissum Research Development Company of the Hebrew University, priority 2002, published 2005)
“Also recorded” adds a separate entry of the source.

Legend:
[1] = test system: EMT6/CTX mouse breast cancer cell line; assay: EMT6/CTX subcutaneous tumor growth in mice (tumor volume); type: in vivo
Description: Breast cancer is a highly lethal disease. To test the efficacy of rofecoxib, benzyl benzoate, cyclophosphamide, and pamidronate alone and in combination, a mouse breast cancer cell line, EMT6, that was originally isolated from a spontaneous tumor in a BALB/c mouse was used (Twentyman P R and Watson J V, Br. J. Cancer 35: 120 (1977)). This line was further selected for a drug resistant variant, EMT6/CTX, that was used in this study (Teicher B A et al. Cancer Chemother. Pharmacol. 37: 601 (1996)). An EMT6/CTX cell suspension was freshly prepared in DMEM medium+10% FCS, following trypsinization of cell grown in tissue culture. Anesthesia is performed by injecting 0.08 ml per mouse of Ketamine 30 mg/ml+0.07% Chanazine in PBS.
Rofecoxib (Vioxx, a Merck & Co. Inc. product), as an oral suspension. Diclofenac, water-soluble Vitamin K3 (menadione sodium bisulfite) and Benzyl benzoate, purchased from Sigma-Aldrich (St. Louise, […].), were formulated into solution in double-distilled water plus 2% Tween 20 (J.T. Baker, NJ). Cyclophosphamide, purchased from Bristol-Meyers Squibb (Princeton, N.J.), was formulated into solution in double-distilled water plus 2% Tween 20. Pamidronate (Pamidronic acid) was dissolved in 2M HEPES. The following doses were used for treatment in all three experiments: Rofecoxib 10 mg/kg, pamidronate 10 mg/kg, Diclofenac 30 or 60 mg/kg, menadione sodium bisulfite 20 or 50 mg/kg, cyclophosphamide (CTX) 50, 60 or 100 mg/kg and benzyl benzoate 80 or 550 mg/kg. Vehicle: 2% Tween 20 in double distilled water. The preparations were made in a concentration that will require an i.p. injection of 0.1 ml per 20 gr body weight to achieve the above doses.
All treatments were started 5 days after cell inoculation. Treatment comprised an intraperitoneal injection of 0.1 ml per 20 gr body weight of the formulation. Mice were treated twice a week for a period of 3 weeks.
Tumor dimensions were measured twice a week. Tumor volume was calculated according to conventional methods (volume=a^2×b×0.52 where a represents the tumor width and b is its length) and the data are represented as changes in tumor volume with time. Toxicity was evaluated by qualitative observation of the general appearance and behavior of the mice, by measuring their body weight during various intervals during the course of the treatments and by obtaining mortality data.

cancer = conditions: Tetef M. et al. J. Cancer Res. Clin. Oncol. 121: 103-6 (1995); cited from earlier work
tumor-bearing mice = assay: Own studies with tumor-bearing mice, agent given by itself; type: in vivo

CC1=CC(=O)c2ccccc2C1=O [VK, 2-methyl-1,4-naphthalenedione]
tumor volume, effect of addition of Vitamin K3 ([1]; Experiment 8, FIG. 8, VK 20 mg/kg 6 times a week or 50 mg/kg twice a week added to CTX60+D30+A, 4 weeks): improve the efficacy of the treatment; also recorded: lower doses throughout the week (every day) is preferable | activity as an anti-cancer agent (cancer): failed to show any activity

O=P1(N(CCCl)CCCl)NCCCO1 (stereo not shown) [CTX 50, Cyclophosphamide]
effect on tumor growth ([1]; Experiment 3, FIG. 3, i.p. twice a week for 4 weeks, start 3 days after inoculation): moderate effect on tumor growth | tumor volume, comparison of regimen ([1]; Experiment 7, FIG. 7, CTX 100 Sun. or CTX20 all week, D50 1, 3 or 5 days apart, A all week, 4 weeks): preferred over equal small doses throughout the week

O=C(OCc1ccccc1)c1ccccc1 [A, Benzyl benzoate]
tumor volume, comparison of regimen ([1]; Experiment 4, FIG. 4, (CTX 50+BC)x2 per week+1/6A x6 per week vs CTX 50+ABC twice a week, 4 weeks): superiority of spreading the dose of A throughout the week

O=C(O)Cc1ccccc1Nc1c(Cl)cccc1Cl [D, Diclofenac]
tumor volume, comparison of NSAID ([1]; Experiment 6, FIG. 6, NSAID Wed. with or without B, CTX 100 Sun., A all week, 4 weeks): superiority of D (25 and 50 mg/kg) over C (5 and 10 mg/kg, respectively)

CS(=O)(=O)c1ccc(C2=C(c3ccccc3)C(=O)OC2)cc1 [Rofecoxib]
anti-cancer effect (tumor-bearing mice): no significant anti-cancer effect
